Patent US8067044B2, “Cosmetic compositions containing an extract of leaves of the Castanea sativa plant and cosmetic treatments” (Cognis France S.A.S., priority 2004, dated 2011)

Legend:
[1] = Anti-DPPH test (free radical scavenging); details: average of 2 assays
Text: 1.2 Methods and principle of this experiment: The anti-free radical (anti-FR) activity has been evaluated by chemical tests for the evaluation of the potential to scavenge free radicals R (DPPH test) and hydroxyl radicals HO. The anti-FR activity has been evaluated also by biochemical tests to address the potential for scavenging of a kind of reactive oxygen species (ROS), the so called super oxide anion (O2). […] Xanthine oxydase (XOD) is an enzyme activated during oxidative stress, this enzyme catalyses the O2 release along the degradation of hypoxanthin (HX) which has been overproduced by a disruption of energetic cell metabolism. […] Principle: DPPH (diphenylpicryl-hydrazyl) is a stable free radical which forms a purple solution. The purple solution of DPPH^o has a whitening effect due to components that act as radical-scavengers. […] The results are expressed in percent inhibition of DPPH radical against control. The aim of this test is to show an anti-free radical activity.

[2] = system: strains of Gram-positive and Gram-negative bacteria; details: same bacterial strains; cited from earlier work
[3] = system: Raphanus sativus seed germination; details: cited from earlier work
[4] = system: B16 melanocytes; test: Inhibition of melanin synthesis on B16 melanocytes; format: cell-based; details: for Rate of cellular proteins / Rate of melanin: control = 100; for rate of released melanin (comment): treated B16 melanocytes
Experimental: Aim of the experiment: to evaluate the potential of compounds to lower the melanin synthesis; the compounds have been tested on cell culture of melanocytes called B16.
• Seeding of melanocytes in growth medium • Incubation for 3 days at 37° C., CO2=5% (atmosphere: 5% carbon dioxide in air) • Exchange of the growth medium by a medium with a range of concentration of ingredients to be tested • Incubation for 3 days at 37° C., CO2=5% (atmosphere: 5% carbon dioxide in air) • Recording of Cellular levels of protein by Bradford's method • Recording of melanin by a spectrophotometric method (OD at 475 nm)

[5] = system: Lipoxygenase; test: Inhibition test on lipoxygenase (superoxide anions, luminol); format: biochemical
Text: (§1) 1.2 Methods and principle of this experiment: The anti-free radical (anti-FR) activity has been evaluated by chemical tests for the evaluation of the potential to scavenge free radicals R (DPPH test) and hydroxyl radicals HO. The anti-FR activity has been evaluated also by biochemical tests to address the potential for scavenging of a kind of reactive oxygen species (ROS), the so called super oxide anion (O2). The O2 originates mainly from xanthine oxydase and lipoxygenase activities. Xanthine oxydase (XOD) is an enzyme activated during oxidative stress, this enzyme catalyses the O2 release along the degradation of hypoxanthin (HX) which has been overproduced by a disruption of energetic cell metabolism.
Lipoxygenase was incubated with a specific substrate (unsaturated fatty acid) and the ingredient to be tested. Then the rate of released superoxide anions was evaluated by a luminescent probe (luminol). Caffeic acid was tested as reference ingredient.

[6] = Anti-HO test with deoxyribose (Fenton's reaction), reaction with EDTA
Text: as §1
Principle: The hydroxyl radical HO— (formed by H2O2 in presence of Fe++ with EDTA) oxidises deoxyribose (a component of DNA), then a pink compound is formed by condensation of thiobarbituric acid with oxidised form of deoxyribose. The optical density at 532 nm corresponds to the level of oxidised deoxyribose. An anti-free radical substance reacts with these radicals HO— and reduces the formation of this pink compound.
(§2) The results are expressed in percent of inhibition of HO— radical against control. The aim of this test is to show an anti-free radical activity.

[7] = Anti-HO test with deoxyribose (Fenton's reaction), reaction without EDTA
Text: as §1
[…] The optical density at 532 nm corresponds to the level of oxidised deoxyribose. An anti-free radical substance reacts with these radicals HO— and reduces the formation of this pink compound.
as §2

[8] = target: Xanthine oxidase (Homo sapiens, UniProt P47989); test: Inhibition test on xanthine oxidase (superoxide anion revealed by NBT); format: biochemical
Text: as §1
Xanthine oxydase is an enzyme induced during oxidative stress: it catabolises the puric bases (adenine, guanine) in uric acid and superoxide anions O2— dismutates spontaneously (or by the action of SOD=superoxyde dismutase) in H2O2 and O2.
A substance with an anti-free-radical-activity absorbs or destroys the O2— anion and thereby it reduces the optical density.
The results are expressed in percent of inhibition of O2— radical against control. The aim of this test is to show an anti-free radical activity.
As to the meaning of U/ml: for an enzyme, the dose is expressed in Units/ml for unity. In the other cases, it is not enzymes.

[9] = system: human fibroblasts; test: Inhibition of UVA effect on human fibroblasts (released MDA); format: cell-based
Experimental: Aim of the experiment: Determination of the potential of the tested ingredient to reduce negative effects of UV-A radiation on the survival rate of human fibroblasts.
• Seeding of human fibroblasts in a growth medium • Incubation for 3 days at 37° C., CO2=5% (atmosphere: 5% carbon dioxide in air) • Exchange of the growth medium by a medium with a range of concentration of ingredients to be tested • Incubation for 2 days at 37° C., CO2=5% • Exchange of the medium with ingredients by a balanced salt solution and UV-A irradiation (20 J/cm^2) • Recording of released MDA levels by spectro-fluorimetry. (MDA (malonaldialdehyde) is a product of oxidative degradation of lipids from cell membranes)

Xanthine oxidase, sequence (P47989 whole entry, species assumed): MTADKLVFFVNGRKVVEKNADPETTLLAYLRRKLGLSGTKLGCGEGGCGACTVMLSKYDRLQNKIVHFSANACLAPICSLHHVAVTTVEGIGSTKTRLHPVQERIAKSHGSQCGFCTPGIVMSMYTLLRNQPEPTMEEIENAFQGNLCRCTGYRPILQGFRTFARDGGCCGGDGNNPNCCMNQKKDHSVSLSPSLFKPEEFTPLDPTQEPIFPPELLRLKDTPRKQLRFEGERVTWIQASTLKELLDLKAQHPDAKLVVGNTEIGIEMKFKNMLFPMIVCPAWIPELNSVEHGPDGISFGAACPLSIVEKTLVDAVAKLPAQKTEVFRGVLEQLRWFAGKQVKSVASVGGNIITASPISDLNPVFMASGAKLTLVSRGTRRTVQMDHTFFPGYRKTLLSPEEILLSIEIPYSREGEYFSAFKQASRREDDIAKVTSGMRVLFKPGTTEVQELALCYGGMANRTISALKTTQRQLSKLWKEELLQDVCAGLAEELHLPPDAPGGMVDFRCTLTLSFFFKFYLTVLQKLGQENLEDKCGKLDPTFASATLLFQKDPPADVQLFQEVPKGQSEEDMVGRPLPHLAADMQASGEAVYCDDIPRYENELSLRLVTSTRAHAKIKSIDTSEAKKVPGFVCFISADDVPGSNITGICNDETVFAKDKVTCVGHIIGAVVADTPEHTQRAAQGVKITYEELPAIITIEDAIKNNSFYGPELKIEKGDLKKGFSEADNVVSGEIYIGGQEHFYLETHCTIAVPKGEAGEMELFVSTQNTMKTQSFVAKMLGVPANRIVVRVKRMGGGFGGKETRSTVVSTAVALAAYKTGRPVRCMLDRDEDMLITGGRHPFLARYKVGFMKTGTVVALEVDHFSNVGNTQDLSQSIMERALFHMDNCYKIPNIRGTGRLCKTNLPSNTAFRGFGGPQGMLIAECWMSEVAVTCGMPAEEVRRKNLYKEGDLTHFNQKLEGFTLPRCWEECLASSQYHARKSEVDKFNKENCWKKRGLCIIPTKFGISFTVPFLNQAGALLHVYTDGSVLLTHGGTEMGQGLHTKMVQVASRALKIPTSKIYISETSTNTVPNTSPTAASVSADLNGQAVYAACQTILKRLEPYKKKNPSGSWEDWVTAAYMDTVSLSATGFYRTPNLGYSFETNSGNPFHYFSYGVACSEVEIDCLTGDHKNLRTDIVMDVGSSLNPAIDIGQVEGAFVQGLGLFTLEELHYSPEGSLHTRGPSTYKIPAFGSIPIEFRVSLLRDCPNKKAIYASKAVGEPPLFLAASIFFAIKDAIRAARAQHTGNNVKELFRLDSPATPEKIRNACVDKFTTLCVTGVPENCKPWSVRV

Molecule: O=C1O[C@H]([C@@H](O)CO)C(O)=C1O [Vitamin C, ascorbic acid]
- % of inhibition of DPPH radical/control ([1]; 0.0003 % (w/v)): 19%
- % of inhibition of DPPH radical/control ([1]; 0.001 % (w/v)): 58%
- % of inhibition of DPPH radical/control ([1]; 0.003 % (w/v)): 74%
- % of inhibition of DPPH radical/control ([1]; 0.01 % (w/v)): 68%

Molecule: O=c1cc(-c2ccc(O)cc2)oc2cc(O)cc(O)c12 [apigenin]
- antibacterial activity among standards of the identified flavonoids [2]: highest activity
- percentage of seed germination and root and epicotyl growth [3]: decrease

Molecule: OC[C@H]1O[C@@H](Oc2ccc(O)cc2)[C@H](O)[C@@H](O)[C@@H]1O [arbutin]
- Rate of cellular proteins ([4]; dose 0.2 % w/v): 91 % against control
- Rate of melanin ([4]; dose 0.2 % w/v): 64 % against control
- rate of released melanin (comment) [4]: strongly decreased

Molecule: O=C(O)/C=C/c1ccc(O)c(O)c1 [caffeic acid]
- % of inhibition (lipoxygenase, released superoxide anions) ([5]; 0.00002 % (w/v)): 18%
- % of inhibition (lipoxygenase, released superoxide anions) ([5]; 0.0002 % (w/v)): 53%

Molecule: O=c1cc(CO)occ1O [kojic acid]
- Rate of cellular proteins ([4]; dose 0.03 % w/v): 109 % against control
- Rate of melanin ([4]; dose 0.03 % w/v): 32 % against control
- rate of released melanin (comment) [4]: strongly decreased

Molecule: OC[C@@H](O)[C@@H](O)[C@H](O)[C@H](O)CO [mannitol]
- % of inhibition of HO— radical/control ([6]; 0.06 % (w/v)): 25%
- % of inhibition of HO— radical/control ([6]; 0.6 % (w/v)): 68%

Molecule: c1cnc2c(c1)ccc1cccnc12 [o-phenanthroline]
- % of inhibition of HO— radical/control ([7]; 0.02 % (w/v)): 42%
- % of inhibition of HO— radical/control ([7]; 0.06 % (w/v)): 71%

Molecule: O=c1c(O)c(-c2ccc(O)c(O)c2)oc2cc(O)cc(O)c12 [quercetin]
- antibacterial activity among standards of the identified flavonoids [2]: highest activity
- percentage of seed germination and root and epicotyl growth [3]: decrease

Molecule: SOD: superoxyde dismutase, enzyme used as reference, dosed in U/ml
- % of inhibition of O2— radical against control ([8]; 0.5 U/ml): 18%
- % of inhibition of O2— radical against control ([8]; 5 U/ml): 50%
- % of inhibition of O2— radical against control ([8]; 50 U/ml): 95%
- IC50 ([8]; enzyme reference, Units/ml): 5 U/ml

Molecule: Vitamin E
- rate of released MDA from UV-A irradiated fibroblasts (comment) ([9]; UV-A irradiated human fibroblasts): strongly decreased
- Rate of released MDA ([9]; dose 0.0003 % w/v, UV-A 20 J/cm2 (irradiated control = 100)): 7 % against control
